Test results published in ChEMBL document CHEMBL4385653, “Design, synthesis, biological evaluation of benzoyl amide derivatives containing nitrogen heterocyclic ring as potential VEGFR-2 inhibitors” (Bioorg Med Chem, 2019).
Values belong to the compound of their own block, whether it stands above or below them.

Tests used:
[1] = target: Vascular endothelial growth factor receptor 2 (Homo sapiens, UniProt P35968); assay: Inhibition of VEGFR2 (unknown origin) incubated for 30 mins by enzyme immunoassay
[2] = test system: HepG2; assay: Antiproliferative activity against human HepG2 cells assessed as inhibition of cell proliferation incubated for 48 hrs by MTT assay; type: functional, cell-based; conditions: HepG2, 48 h
[3] = Inhibition of PDGFR (unknown origin) incubated for 30 mins by enzyme immunoassay; set-up: species or system Homo sapiens
[4] = target: Epidermal growth factor receptor (Homo sapiens, UniProt P00533); assay: Inhibition of EGFR (unknown origin) incubated for 30 mins by enzyme immunoassay
[5] = test system: HeLa; assay: Antiproliferative activity against human HeLa cells assessed as inhibition of cell proliferation incubated for 48 hrs by MTT assay; type: functional, cell-based
[6] = test system: MCF7; assay: Antiproliferative activity against human MCF7 cells assessed as inhibition of cell proliferation incubated for 48 hrs by MTT assay; type: functional, cell-based; conditions: MCF7, 48 h
[7] = target: Fibroblast growth factor receptor 1 (Homo sapiens, UniProt P11362); assay: Inhibition of bFGFR (unknown origin) incubated for 30 mins by enzyme immunoassay
[8] = test system: A549; assay: Antiproliferative activity against human A549 cells assessed as inhibition of cell proliferation incubated for 48 hrs by MTT assay; type: functional, cell-based; conditions: A549, 48 h
[9] = Cytotoxicity in HEK293T cells assessed as reduction in cell viability incubated for 48 hrs by MTT assay; type: cell-based, HEK-293T; conditions: human
[10] = test system: MCF7; assay: Induction of apoptosis in human MCF7 cells assessed as late apoptotic cells level at 4 uM incubated for 12 hrs by Annexin V-FITC/PI double staining based flow cytometry analysis (reference value: 3.1%); type: functional
[11] = test system: MCF7; assay: Induction of apoptosis in human MCF7 cells assessed as late apoptotic cells level at 4 uM incubated for 24 hrs by Annexin V-FITC/PI double staining based flow cytometry analysis (reference value: 3.1%); type: functional
[12] = test system: MCF7; assay: Induction of apoptosis in human MCF7 cells assessed as early apoptotic cells level at 2 uM incubated for 24 hrs by Annexin V-FITC/PI double staining based flow cytometry analysis (reference value: 6.37%); type: functional
[13] = test system: MCF7; assay: Induction of apoptosis in human MCF7 cells assessed as late apoptotic cells level at 4 uM incubated for 24 hrs by Annexin V-FITC/PI double staining based flow cytometry analysis (reference value: 10.1%); type: functional
[14] = test system: MCF7; assay: Induction of apoptosis in human MCF7 cells assessed as viable cells level at 4 uM incubated for 24 hrs by Annexin V-FITC/PI double staining based flow cytometry analysis (reference value: 89%); type: functional
[15] = test system: MCF7; assay: Induction of apoptosis in human MCF7 cells assessed as late apoptotic cells level at 4 uM incubated for 36 hrs by Annexin V-FITC/PI double staining based flow cytometry analysis (reference value: 3.1%); type: functional
[16] = test system: MCF7; assay: Induction of apoptosis in human MCF7 cells assessed as early apoptotic cells level at 4 uM incubated for 24 hrs by Annexin V-FITC/PI double staining based flow cytometry analysis (reference value: 6.37%); type: functional
[17] = test system: MCF7; assay: Induction of apoptosis in human MCF7 cells assessed as viable cells level at 4 uM incubated for 36 hrs by Annexin V-FITC/PI double staining based flow cytometry analysis (reference value: 89%); type: functional
[18] = test system: MCF7; assay: Induction of apoptosis in human MCF7 cells assessed as late necrotic cells level at 4 uM incubated for 36 hrs by Annexin V-FITC/PI double staining based flow cytometry analysis (reference value: 6.88%); type: functional
[19] = test system: MCF7; assay: Induction of apoptosis in human MCF7 cells assessed as late necrotic cells level at 4 uM incubated for 24 hrs by Annexin V-FITC/PI double staining based flow cytometry analysis (reference value: 1.49%); type: functional
[20] = test system: MCF7; assay: Induction of apoptosis in human MCF7 cells assessed as late apoptotic cells level at 8 uM incubated for 24 hrs by Annexin V-FITC/PI double staining based flow cytometry analysis (reference value: 10.1%); type: functional
[21] = test system: MCF7; assay: Induction of apoptosis in human MCF7 cells assessed as late necrotic cells level at 2 uM incubated for 24 hrs by Annexin V-FITC/PI double staining based flow cytometry analysis (reference value: 1.49%); type: functional
[22] = test system: MCF7; assay: Induction of apoptosis in human MCF7 cells assessed as viable cells level at 2 uM incubated for 24 hrs by Annexin V-FITC/PI double staining based flow cytometry analysis (reference value: 82%); type: functional
[23] = test system: MCF7; assay: Induction of apoptosis in human MCF7 cells assessed as viable cells level at 8 uM incubated for 24 hrs by Annexin V-FITC/PI double staining based flow cytometry analysis (reference value: 82%); type: functional
[24] = test system: MCF7; assay: Induction of apoptosis in human MCF7 cells assessed as early apoptotic cells level at 4 uM incubated for 36 hrs by Annexin V-FITC/PI double staining based flow cytometry analysis (reference value: 1.06%); type: functional
[25] = test system: MCF7; assay: Induction of apoptosis in human MCF7 cells assessed as early apoptotic cells level at 8 uM incubated for 24 hrs by Annexin V-FITC/PI double staining based flow cytometry analysis (reference value: 6.37%); type: functional
[26] = test system: MCF7; assay: Induction of apoptosis in human MCF7 cells assessed as late apoptotic cells level at 2 uM incubated for 24 hrs by Annexin V-FITC/PI double staining based flow cytometry analysis (reference value: 10.1%); type: functional
[27] = test system: MCF7; assay: Induction of apoptosis in human MCF7 cells assessed as early apoptotic cells level at 4 uM incubated for 12 hrs by Annexin V-FITC/PI double staining based flow cytometry analysis (reference value: 1.06%); type: functional
[28] = test system: MCF7; assay: Induction of apoptosis in human MCF7 cells assessed as late necrotic cells level at 4 uM incubated for 24 hrs by Annexin V-FITC/PI double staining based flow cytometry analysis (reference value: 6.88%); type: functional
[29] = test system: MCF7; assay: Induction of apoptosis in human MCF7 cells assessed as viable cells level at 4 uM incubated for 12 hrs by Annexin V-FITC/PI double staining based flow cytometry analysis (reference value: 89%); type: functional
[30] = test system: MCF7; assay: Induction of apoptosis in human MCF7 cells assessed as viable cells level at 4 uM incubated for 24 hrs by Annexin V-FITC/PI double staining based flow cytometry analysis (reference value: 82%); type: functional
[31] = test system: MCF7; assay: Induction of apoptosis in human MCF7 cells assessed as early apoptotic cells level at 4 uM incubated for 24 hrs by Annexin V-FITC/PI double staining based flow cytometry analysis (reference value: 1.06%); type: functional
[32] = test system: MCF7; assay: Induction of apoptosis in human MCF7 cells assessed as late necrotic cells level at 8 uM incubated for 24 hrs by Annexin V-FITC/PI double staining based flow cytometry analysis (reference value: 1.49%); type: functional
[33] = test system: MCF7; assay: Induction of apoptosis in human MCF7 cells assessed as late necrotic cells level at 4 uM incubated for 12 hrs by Annexin V-FITC/PI double staining based flow cytometry analysis (reference value: 6.88%); type: functional
[34] = test system: MCF7; assay: Induction of apoptosis in human MCF7 cells incubated for 24 hrs by Annexin V-FITC/PI double staining based flow cytometry analysis; type: functional, cell-based

Fibroblast growth factor receptor 1, sequence (P11362 whole entry): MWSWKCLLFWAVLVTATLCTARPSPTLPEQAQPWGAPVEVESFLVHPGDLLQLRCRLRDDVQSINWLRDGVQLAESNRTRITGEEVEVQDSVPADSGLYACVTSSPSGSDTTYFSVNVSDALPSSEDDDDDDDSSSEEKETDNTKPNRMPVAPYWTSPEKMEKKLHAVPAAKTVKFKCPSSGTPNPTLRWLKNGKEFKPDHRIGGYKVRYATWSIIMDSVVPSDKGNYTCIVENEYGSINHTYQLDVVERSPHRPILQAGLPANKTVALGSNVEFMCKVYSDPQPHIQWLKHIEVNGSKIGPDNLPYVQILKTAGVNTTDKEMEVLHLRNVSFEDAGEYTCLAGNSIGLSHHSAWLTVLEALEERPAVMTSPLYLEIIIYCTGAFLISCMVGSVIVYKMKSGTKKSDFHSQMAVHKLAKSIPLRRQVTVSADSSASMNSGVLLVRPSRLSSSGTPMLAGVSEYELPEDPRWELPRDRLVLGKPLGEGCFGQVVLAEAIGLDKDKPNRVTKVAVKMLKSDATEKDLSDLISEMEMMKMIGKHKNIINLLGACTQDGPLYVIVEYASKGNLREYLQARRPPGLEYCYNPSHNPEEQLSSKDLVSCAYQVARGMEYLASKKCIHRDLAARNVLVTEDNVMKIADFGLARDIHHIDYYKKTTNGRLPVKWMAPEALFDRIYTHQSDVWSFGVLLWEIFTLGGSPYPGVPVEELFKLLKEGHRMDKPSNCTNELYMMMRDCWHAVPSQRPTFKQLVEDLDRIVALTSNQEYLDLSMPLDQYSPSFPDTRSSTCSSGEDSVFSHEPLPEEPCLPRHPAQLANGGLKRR
Vascular endothelial growth factor receptor 2, sequence (P35968 whole entry): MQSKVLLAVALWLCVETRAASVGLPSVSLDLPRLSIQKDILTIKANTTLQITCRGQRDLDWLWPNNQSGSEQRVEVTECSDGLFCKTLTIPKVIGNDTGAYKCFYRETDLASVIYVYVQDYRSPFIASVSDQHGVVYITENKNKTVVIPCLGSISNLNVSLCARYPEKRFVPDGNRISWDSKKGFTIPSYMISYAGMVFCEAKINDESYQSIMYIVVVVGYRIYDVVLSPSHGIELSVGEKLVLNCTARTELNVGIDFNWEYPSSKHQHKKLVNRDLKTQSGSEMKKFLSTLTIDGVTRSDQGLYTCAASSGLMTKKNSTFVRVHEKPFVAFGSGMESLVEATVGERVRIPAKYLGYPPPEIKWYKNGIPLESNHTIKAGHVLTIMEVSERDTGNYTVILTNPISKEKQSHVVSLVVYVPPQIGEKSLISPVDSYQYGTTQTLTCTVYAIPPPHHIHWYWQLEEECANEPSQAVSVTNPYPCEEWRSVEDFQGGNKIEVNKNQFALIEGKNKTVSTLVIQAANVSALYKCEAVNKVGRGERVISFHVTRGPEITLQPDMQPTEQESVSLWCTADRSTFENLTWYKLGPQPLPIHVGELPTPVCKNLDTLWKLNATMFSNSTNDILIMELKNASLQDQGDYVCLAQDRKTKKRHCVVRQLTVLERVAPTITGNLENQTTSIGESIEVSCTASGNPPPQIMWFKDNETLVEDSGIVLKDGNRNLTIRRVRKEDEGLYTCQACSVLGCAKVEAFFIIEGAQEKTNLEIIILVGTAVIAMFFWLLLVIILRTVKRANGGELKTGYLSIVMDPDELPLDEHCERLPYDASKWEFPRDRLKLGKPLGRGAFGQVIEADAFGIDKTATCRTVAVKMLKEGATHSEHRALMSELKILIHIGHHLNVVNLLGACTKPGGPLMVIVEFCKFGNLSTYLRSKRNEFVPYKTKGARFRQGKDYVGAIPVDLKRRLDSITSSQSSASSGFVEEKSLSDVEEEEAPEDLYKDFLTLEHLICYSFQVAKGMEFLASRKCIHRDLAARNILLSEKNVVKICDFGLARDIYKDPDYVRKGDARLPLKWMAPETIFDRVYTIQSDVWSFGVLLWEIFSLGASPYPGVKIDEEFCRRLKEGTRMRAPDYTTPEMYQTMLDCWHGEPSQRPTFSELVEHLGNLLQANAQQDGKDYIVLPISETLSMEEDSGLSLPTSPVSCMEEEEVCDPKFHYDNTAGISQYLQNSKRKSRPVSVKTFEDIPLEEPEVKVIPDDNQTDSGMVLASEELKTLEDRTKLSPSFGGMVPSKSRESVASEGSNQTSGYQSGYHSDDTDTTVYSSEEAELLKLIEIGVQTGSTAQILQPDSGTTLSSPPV
Epidermal growth factor receptor, sequence (P00533 whole entry): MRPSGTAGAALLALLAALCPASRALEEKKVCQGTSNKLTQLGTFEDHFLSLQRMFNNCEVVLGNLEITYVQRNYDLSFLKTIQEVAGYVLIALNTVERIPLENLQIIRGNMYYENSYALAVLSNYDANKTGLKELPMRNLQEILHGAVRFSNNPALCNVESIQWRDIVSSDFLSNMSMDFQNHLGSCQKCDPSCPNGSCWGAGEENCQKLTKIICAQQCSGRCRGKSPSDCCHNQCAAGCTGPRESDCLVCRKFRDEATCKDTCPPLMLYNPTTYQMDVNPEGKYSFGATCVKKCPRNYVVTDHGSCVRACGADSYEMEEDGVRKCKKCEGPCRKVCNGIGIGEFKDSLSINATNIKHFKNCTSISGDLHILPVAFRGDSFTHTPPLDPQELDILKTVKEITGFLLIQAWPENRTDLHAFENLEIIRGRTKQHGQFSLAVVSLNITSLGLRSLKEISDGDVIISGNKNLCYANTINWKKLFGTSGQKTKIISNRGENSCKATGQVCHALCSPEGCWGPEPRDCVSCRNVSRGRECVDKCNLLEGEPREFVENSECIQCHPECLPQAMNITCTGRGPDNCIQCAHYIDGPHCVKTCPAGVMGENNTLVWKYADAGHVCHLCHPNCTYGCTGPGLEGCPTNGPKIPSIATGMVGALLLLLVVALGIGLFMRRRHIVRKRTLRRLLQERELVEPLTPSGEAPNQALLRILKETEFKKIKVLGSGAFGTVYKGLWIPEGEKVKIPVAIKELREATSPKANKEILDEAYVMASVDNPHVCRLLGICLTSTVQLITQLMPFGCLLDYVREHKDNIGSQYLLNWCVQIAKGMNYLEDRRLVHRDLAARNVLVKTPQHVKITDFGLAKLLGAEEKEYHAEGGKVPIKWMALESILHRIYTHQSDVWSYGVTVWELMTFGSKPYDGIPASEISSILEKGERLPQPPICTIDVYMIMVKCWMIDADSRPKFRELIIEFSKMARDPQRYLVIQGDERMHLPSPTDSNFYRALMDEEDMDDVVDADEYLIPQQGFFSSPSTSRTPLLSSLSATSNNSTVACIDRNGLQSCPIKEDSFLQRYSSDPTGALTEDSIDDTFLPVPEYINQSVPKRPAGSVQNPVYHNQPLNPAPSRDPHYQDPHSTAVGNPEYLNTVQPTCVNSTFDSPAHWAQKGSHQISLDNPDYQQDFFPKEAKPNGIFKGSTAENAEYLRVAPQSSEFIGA

SMILES: COc1ccc(-n2cc(NC(=O)c3ccc(NS(=O)(=O)c4ccc(Cl)cc4)cc3)cn2)cc1
IC50 [1]: 7.16 µM | IC50 [2]: 19.1 µM | IC50 [3]: 26.5 µM | IC50 [4]: 16.2 µM | IC50 [5]: 25.2 µM | IC50 [6]: 15.6 µM | IC50 [7]: 26.5 µM | IC50 [8]: 61 µM

SMILES: Cn1cc(NC(=O)c2ccc(NS(=O)(=O)c3ccccc3)cc2)cn1
IC50 [1]: 25.2 µM | IC50 [2]: > 100 µM | IC50 [3]: 42.6 µM | IC50 [4]: 36.8 µM | IC50 [5]: 92.8 µM | IC50 [6]: 58.7 µM | IC50 [7]: 62.1 µM | IC50 [8]: > 100 µM

SMILES: COc1cccc(-n2cc(NC(=O)c3cccc(NS(=O)(=O)c4ccc(Cl)cc4)c3)cn2)c1
IC50 [1]: 5.97 µM | IC50 [2]: 19.6 µM | CC50 at 48 h [9]: 133 µM | IC50 [3]: 24.4 µM | IC50 [4]: 15.6 µM | IC50 [5]: 25 µM | IC50 [6]: 9.43 µM | IC50 [7]: 22.2 µM | IC50 [8]: 44.4 µM

SMILES: Cn1cc(NC(=O)c2cccc(NS(=O)(=O)c3ccc(Cl)cc3)c2)cn1
IC50 [1]: 17.4 µM | IC50 [2]: 82.7 µM | IC50 [3]: 39.9 µM | IC50 [5]: 63 µM | IC50 [6]: 32.3 µM | IC50 [7]: 58.9 µM | IC50 [8]: > 100 µM

SMILES: CCCS(=O)(=O)Nc1ccc(F)c(C(=O)c2c[nH]c3ncc(-c4ccc(Cl)cc4)cc23)c1F [VEMURAFENIB]
Activity [10]: 13.9% | Activity [11]: 16.7% | Activity [12]: 8.28% | Activity [13]: 21.7% | Activity [14]: 66.4% | Activity [15]: 13.7% | Activity [16]: 8.13% | Activity [17]: 50.7% | Activity [18]: 0.853% | Activity [19]: 3.53% | Activity [20]: 26.3% | Activity [21]: 2.29% | Activity [22]: 74.6% | Activity [23]: 57.2% | Activity [24]: 34.7% | Activity [25]: 14.4% | Activity [26]: 14.9% | Activity [27]: 14.2% | Activity [28]: 1.81% | Activity [29]: 70.7% | Activity [30]: 66.7% | Activity [31]: 15.1% | Activity [32]: 2.02% | Activity [33]: 1.24%

SMILES: Cc1ccc(-n2cc(NC(=O)c3ccc(NS(=O)(=O)c4ccccc4)cc3)cn2)cc1
IC50 [1]: 6.85 µM | IC50 [2]: 18.1 µM | CC50 at 48 h [9]: 107 µM | IC50 [3]: 26 µM | IC50 [4]: 18.3 µM | IC50 [5]: 27.9 µM | IC50 [6]: 10.9 µM | IC50 [7]: 28.1 µM | IC50 [8]: 54.7 µM

SMILES: Cn1cc(NC(=O)c2cccc(NS(=O)(=O)c3ccccc3)c2)cn1
IC50 [1]: 20.4 µM | IC50 [2]: 85.3 µM | IC50 [3]: 41.6 µM | IC50 [4]: 34.3 µM | IC50 [5]: 78.5 µM | IC50 [6]: 41.2 µM | IC50 [7]: 57.1 µM | IC50 [8]: > 100 µM

Second part, led by results:

IC50 [1]: 5.15 µM | IC50 [2]: 15.2 µM | IC50 [3]: 21.7 µM | IC50 [4]: 15.3 µM | IC50 [5]: 19.7 µM | IC50 [6]: 8.72 µM | IC50 [7]: 25.5 µM | IC50 [8]: 29.7 µM
SMILES: COc1ccc(-n2cc(NC(=O)c3cccc(NS(=O)(=O)c4ccc(Cl)cc4)c3)cn2)cc1
CC50 at 48 h [9]: 89.8 µM

IC50 [1]: 3.26 µM | IC50 [2]: 10.1 µM | IC50 [3]: 18.6 µM | IC50 [4]: 15.4 µM | IC50 [5]: 15.3 µM | IC50 [6]: 4.32 µM | IC50 [7]: 18.2 µM | IC50 [8]: 26.8 µM
SMILES: O=C(Nc1cnn(-c2ccccc2)c1)c1cccc(NS(=O)(=O)c2ccccc2)c1
CC50 at 48 h [9]: 110 µM

IC50 [2]: 2.46 µM | IC50 [3]: 1.33 µM | IC50 [5]: 6.57 µM | IC50 [6]: 1.4 µM | IC50 [8]: 18.2 µM
SMILES: COc1cc2/c(=N/c3ccc(Br)cc3F)nc[nH]c2cc1OCC1CCN(C)CC1 [VANDETANIB]
Activity [34]: Dose-dependent effect
